Literature values, collected in PubChem BioAssay AID1259409 (Chemical Carcinogenesis Research Information System (CCRIS), 2018).

System: rodent chemically induced tumor inhibition, incidence and multiplicity
Assay: CCRIS tumor inhibitor studies

CC(C)C[C@H]1C(=O)N2CCC[C@H]2[C@]2(O)O[C@](NC(=O)[C@@H]3C=C4c5cccc6[nH]c(Br)c(c56)C[C@H]4N(C)C3)(C(C)C)C(=O)N12
tumour outcome (control, treated, inhibition, significance) (Carcinogen: 7,12-DIMETHYLBENZ[A]ANTHRACENE, 57-97-6, Dose [Inhibitor]: 0.4 MG/D FROM 90 TO 150 D OF AGE BEGINNING 30 D POST CARCINOGEN TREATMENT (STUDY DURATION: 9 MO AFTER DMBA TREATMENT), Route [Inhibitor]: SUBCUTANEOUS, Species: RAT, Strain/Sex: LONG-EVANS/FEMALE, Target Tissue: Type of Lesion: MAMMARY GLAND: CARCINOMA, Dose [Carcinogen]: 20 MG ONCE AT 60 D OF AGE, Promoter: NONE USED): 20%, 38%, -90%, not significant | tumour outcome (control, treated, inhibition, significance) (Carcinogen: 7,12-DIMETHYLBENZ[A]ANTHRACENE, 57-97-6, Dose [Inhibitor]: 0.4 MG/D FROM 90 TO 150 D OF AGE BEGINNING 30 D POST CARCINOGEN TREATMENT (STUDY DURATION: 9 MO AFTER DMBA TREATMENT), Route [Inhibitor]: SUBCUTANEOUS, Species: RAT, Strain/Sex: LONG-EVANS/FEMALE, Target Tissue: Type of Lesion: MAMMARY GLAND: FIBROADENOMA, Dose [Carcinogen]: 20 MG ONCE AT 60 D OF AGE, Promoter: NONE USED): 16%, 0%, 100%, not significant | tumour outcome (control, treated, inhibition, significance) (Carcinogen: 7,12-DIMETHYLBENZ[A]ANTHRACENE, 57-97-6, Dose [Inhibitor]: 0.4 MG/D FROM 90 TO 150 D OF AGE BEGINNING 30 D POST CARCINOGEN TREATMENT (STUDY DURATION: 9 MO AFTER DMBA TREATMENT), Route [Inhibitor]: SUBCUTANEOUS, Species: RAT, Strain/Sex: SPRAGUE-DAWLEY/FEMALE, Target Tissue: Type of Lesion: MAMMARY GLAND: CARCINOMA, Dose [Carcinogen]: 5 MG ONCE AT 60 D OF AGE, Promoter: NONE USED): 85%, 52%, 39%, p<0.05 | tumour outcome (control, treated, inhibition, significance) (Carcinogen: 7,12-DIMETHYLBENZ[A]ANTHRACENE, 57-97-6, Dose [Inhibitor]: 0.4 MG/D FROM 90 TO 150 D OF AGE BEGINNING 30 D POST CARCINOGEN TREATMENT (STUDY DURATION: 9 MO AFTER DMBA TREATMENT), Route [Inhibitor]: SUBCUTANEOUS, Species: RAT, Strain/Sex: SPRAGUE-DAWLEY/FEMALE, Target Tissue: Type of Lesion: MAMMARY GLAND: FIBROADENOMA, Dose [Carcinogen]: 5 MG ONCE AT 60 D OF AGE, Promoter: NONE USED): 22%, 10%, 54%, not significant | tumour outcome (control, treated, inhibition, significance) (Carcinogen: 7,12-DIMETHYLBENZ[A]ANTHRACENE, 57-97-6, Dose [Inhibitor]: 0.4 MG/D FROM 90 TO 150 D OF AGE BEGINNING 30 D POST CARCINOGEN TREATMENT (STUDY DURATION: 12 MO AFTER DMBA TREATMENT), Route [Inhibitor]: SUBCUTANEOUS, Species: RAT, Strain/Sex: SPRAGUE-DAWLEY/FEMALE, Target Tissue: Type of Lesion: MAMMARY GLAND: CARCINOMA, Dose [Carcinogen]: 1.25 MG ONCE AT 60 D OF AGE, Promoter: NONE USED): 15%, 10%, 33%, not significant | tumour outcome (control, treated, inhibition, significance) (Carcinogen: 7,12-DIMETHYLBENZ[A]ANTHRACENE, 57-97-6, Dose [Inhibitor]: 0.4 MG/D FROM 90 TO 150 D OF AGE BEGINNING 30 D POST CARCINOGEN TREATMENT (STUDY DURATION: 12 MO AFTER DMBA TREATMENT), Route [Inhibitor]: SUBCUTANEOUS, Species: RAT, Strain/Sex: SPRAGUE-DAWLEY/FEMALE, Target Tissue: Type of Lesion: MAMMARY GLAND: FIBROADENOMA, Dose [Carcinogen]: 1.25 MG ONCE AT 60 D OF AGE, Promoter: NONE USED): 73%, 65%, 11%, not significant | tumour outcome (control, treated, inhibition, significance) (Carcinogen: 7,12-DIMETHYLBENZ[A]ANTHRACENE, 57-97-6, Dose [Inhibitor]: 0.4 MG/D FROM 90 TO 150 D OF AGE BEGINNING POST CARCINOGEN TREATMENT (STUDY DURATION: 6 MO AFTER DMBA TREATMENT), Route [Inhibitor]: SUBCUTANEOUS, Species: RAT, Strain/Sex: SPRAGUE-DAWLEY/FEMALE, Target Tissue: Type of Lesion: MAMMARY GLAND: CARCINOMA, Dose [Carcinogen]: 20 MG ONCE AT 60 D OF AGE, Promoter: NONE USED): 96%, 87%, 9%, p<0.05 | tumour outcome (control, treated, inhibition, significance) (Carcinogen: 7,12-DIMETHYLBENZ[A]ANTHRACENE, 57-97-6, Dose [Inhibitor]: 0.4 MG/D FROM 93 TO 160 D OF AGE BEGINNING 30 D POST CARCINOGEN TREATMENT (STUDY DURATION: 9 MO AFTER DMBA TREATMENT), Route [Inhibitor]: SUBCUTANEOUS, Species: RAT, Strain/Sex: LEWIS/FEMALE, Target Tissue: Type of Lesion: MAMMARY GLAND: CARCINOMA, Dose [Carcinogen]: 10 MG AT 56 AND 63 D OF AGE, Promoter: NONE USED): 94%, 55%, 41%, p<0.05 | tumour outcome (control, treated, inhibition, significance) (Carcinogen: 7,12-DIMETHYLBENZ[A]ANTHRACENE, 57-97-6, Dose [Inhibitor]: 6 MG/KG 6/WK FOR 80 OR 100 D BEGINNING 1 D POST CARCINOGEN DOSE (STUDY DURATION: 245 D), Route [Inhibitor]: INTRAPERITONEAL, Species: RAT, Strain/Sex: CFE/FEMALE, Target Tissue: Type of Lesion: MAMMARY GLAND: NOT SPECIFIED, Dose [Carcinogen]: 2.5 MG 1/D FOR 2 D, Promoter: NONE USED): 17/18 (94%), 16/19 (84%), 11%, not significant | tumour outcome (control, treated, inhibition, significance) (Carcinogen: 17-BETA-ESTRADIOL, 50-28-2, Dose [Inhibitor]: 0.1 MG, DAILY WITH CARCINOGEN AT 1 MO OF AGE FOR 22 MO (STUDY DURATION: 22 MO), Route [Inhibitor]: SUBCUTANEOUS, Species: MOUSE, Strain/Sex: C3H/FEMALE, Target Tissue: Type of Lesion: MAMMARY GLAND: TUMOR, Dose [Carcinogen]: 0.5 MG/L IN DRINKING WATER DAILY CONCURRENTLY WITH INHIBITOR FOR 22 MO, Promoter: NONE USED): 27/99 (27%), 9/100 (9%), 67%, p<0.05 | tumour outcome (control, treated, inhibition, significance) (Carcinogen: 17BETA-ESTRADIOL, 50-28-2, Dose [Inhibitor]: 0.1 MG 1/D FOR 19 MO BEGINNING CONCURRENTLY WITH CARCINOGEN DOSE (STUDY DURATION: 19 MO), Route [Inhibitor]: SUBCUTANEOUS, Species: MOUSE, Strain/Sex: C3H/FEMALE, Target Tissue: Type of Lesion: MAMMARY GLAND: CARCINOMA, Dose [Carcinogen]: 0.5 MG/L IN DRINKING WATER BEGINNING AT 30 D OF AGE FOR 19 MO, Promoter: NONE USED): 27/99 (27%), 9/100 (9%), 67%, p<0.001 | tumour outcome (control, treated, inhibition, significance) (Carcinogen: AZOXYMETHANE, 25843-45-2, Dose [Inhibitor]: 0, 2 MG/KG BW SUSPENDED IN 1 ML/MG OLIVE OIL 1/2 D FOR STUDY DURATION (STUDY DURATION: 30 WK), Route [Inhibitor]: SUBCUTANEOUS, Species: RAT, Strain/Sex: WISTAR/MALE, Target Tissue: Type of Lesion: COLON: TUMOR, Dose [Carcinogen]: 7.4 MG/KG IN 0.9% NACL 1/WK FOR 10 WK): 9/17 (53%), 8/20 (40%), 25%, not significant | tumour outcome (control, treated, inhibition, significance) (Carcinogen: DIETHYLSTILBESTROL, 56-53-1, Dose [Inhibitor]: 0.5 MG 5/WK FOR 9 MO CONCURRENTLY WITH CARCINOGEN DOSE (90 MG TOTAL DOSE) (STUDY DURATION: 9 MO), Route [Inhibitor]: SUBCUTANEOUS, Species: HAMSTER, Strain/Sex: SYRIAN/MALE, Target Tissue: Type of Lesion: KIDNEY: EPITHELIAL NEOPLASM, Dose [Carcinogen]: 0.6 MG 3/WK FOR 9 MO (65 MG TOTAL DOSE), Promoter: NONE USED): 10/12 (83%), 7/12 (58%), 30%, not calculated | tumour outcome (control, treated, inhibition, significance) (Carcinogen: DIMETHYLBENZ[A]ANTHRACENE, 57-97-6, Dose [Inhibitor]: 1 MG ONCE ON D 2 OF DIESTRUS AND ONCE AT PROESTRUS (STUDY DURATION: 26 WK), Route [Inhibitor]: INTRAPERITONEAL, Species: RAT, Strain/Sex: SPRAGUE-DAWLEY/FEMALE, Target Tissue: Type of Lesion: MAMMARY GLAND: NOT SPECIFIED, Dose [Carcinogen]: 5 MG ONCE AT 50 D OF AGE 30 HR POST 1ST AGENT DOSE, Promoter: NONE USED): 97%, 84%, 13%, not significant
